The values that follow come from patent publication US7432260B2, “Pyrimidine compounds” (Cyclacel Limted, priority 2002, dated 2008).

Broadly, the IC50 is the concentration at which inhibition is half-maximal. What is called melting point is the temperature, or range, at which the solid turns liquid.

The target of one data set is CDK2/cyclin E (Homo sapiens, UniProt P24941). Briefly: Kinase assay CDK2/cyclin E. It is filed as biochemical. To be noted: Table 2; read-out: Kinase Inhibition IC50 CDK2 cyclin E. The gist of the method: (§1)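 Each kinase phosphorylates a suitable polypeptide using 32P-labelled ATP (100 μM) at 30° C. Filtered, washed product is counted.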
The target in the next data set is PLK-1 (Homo sapiens, UniProt P53350). Briefly: Kinase assay PLK-1. Type of data set: biochemical. To be noted: Table 2; read-out: Kinase Inhibition IC50 PLK-1. On the procedure:
Kinase assays. […] This was achieved by measurement of incorporation of radioactive phosphate from ATP into appropriate polypeptide substrates. Recombinant protein kinases and kinase complexes were produced or obtained commercially. Assays were performed using 96-well plates and appropriate assay buffers (typically 25 mM β-glycerophosphate, 20 mM MOPS, 5 mM EGTA, 1 mM DTT, 1 mM […], pH 7.4), into which were added 2-4 μg of active enzyme with appropriate substrates. The reactions were initiated by addition of Mg/ATP mix (15 mM MgCl2+100 μM ATP with 30-50 kBq per well of [γ-^32P]-ATP) and mixtures incubated as required at 30° C. Reactions were stopped on ice, followed by filtration through p81 filterplates or GF/C filterplates (Whatman Polyfiltronics, Kent, UK). After washing 3 times with 75 mM aq orthophosphoric acid, plates were dried, scintillant added and incorporated radioactivity measured in a scintillation counter (TopCount, Packard Instruments, Pangbourne, Berks, UK). Compounds for kinase assay were made-up as 10 mM stocks in DMSO and diluted into 10% DMSO inrassay buffer.

The target of a further data set is CDK4/cyclin D1 (Homo sapiens, UniProt P11802). Briefly: Kinase assay CDK4/cyclin D1. Type of data set: biochemical. To be noted: Table 2; read-out: Kinase Inhibition IC50 CDK4 cyclin D1. The gist of the method:
as §1

Another data set has as its system A549. Briefly: 72-h MTT cytotoxicity assay A549. It is filed as cell-based. Particulars: Homo sapiens, A549, 72 h, Table 4. A digest of the protocol: (§2)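 Cells were seeded at densities set by doubling time, left overnight at 37° C, then exposed in triplicate to a 1/3 dilution series of compound (DMSO stock) for 72 h at 37° C. Viability was read by MTT reduction (4 h, dark, 37° C) with formazan dissolved in DMSO.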
Background: Formazan colour is commonly taken as a measure of viable cells.

A further data set has as its system HT29. Briefly: 72-h MTT cytotoxicity assay HT29. It is filed as cell-based. To be noted: Homo sapiens, HT-29, 72 h, Table 4. The gist of the method: as §2
For the next data set, the system named is Saos-2. Briefly: 72-h MTT cytotoxicity assay Saos-2. Type of data set: cell-based. To be noted: Homo sapiens, SAOS-2, 72 h, Table 4. A digest of the protocol: as §2
In another data set the target is GSK-3β (Homo sapiens, UniProt P49841). Briefly: Kinase assay GSK-3β. Type of data set: biochemical. Particulars: Table 2; read-out: Kinase Inhibition IC50 GSK-3β. The gist of the method: as §1
GSK-3β, sequence (P49841 whole entry): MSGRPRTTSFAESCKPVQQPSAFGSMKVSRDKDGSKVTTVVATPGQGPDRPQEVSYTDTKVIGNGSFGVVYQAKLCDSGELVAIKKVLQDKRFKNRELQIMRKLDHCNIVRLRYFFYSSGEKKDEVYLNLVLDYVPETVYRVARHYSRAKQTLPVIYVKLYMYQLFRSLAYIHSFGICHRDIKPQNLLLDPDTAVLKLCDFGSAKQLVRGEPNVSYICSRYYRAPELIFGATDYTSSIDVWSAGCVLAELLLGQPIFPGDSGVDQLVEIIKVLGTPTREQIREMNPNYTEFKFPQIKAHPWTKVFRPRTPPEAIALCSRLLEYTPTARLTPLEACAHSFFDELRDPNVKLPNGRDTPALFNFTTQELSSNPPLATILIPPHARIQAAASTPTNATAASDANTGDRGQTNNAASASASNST
The next data set concerns the target CDK7/cyclin H (Homo sapiens, UniProt P50613). Briefly: CDK7 assay. It is filed as biochemical. Particulars: Table 2; read-out: Kinase Inhibition IC50 CDK7 cyclin H. A digest of the protocol:
(§3)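 Radiometric filter-binding format: test compound at varying amounts incubated with CTD peptide (biotinyl-Ahx-(YSPTSPS)4-NH2) and either CDK9/cyclin T1 or CDK7/cyclin H, using 100 μM ATP spiked with 32P, 45 min, 30 °C, pH 7.2. Reactions were stopped on ice, bound to avidin, filtered on P81 plates and scintillation-counted.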

The target of another data set is CDK2/cyclin A (Homo sapiens, UniProt P24941). Briefly: Kinase assay CDK2/cyclin A. It is filed as biochemical. To be noted: Table 2; read-out: Kinase Inhibition IC50 CDK2 cyclin A. A digest of the protocol: as §1
For the next data set, the target named is CDK1/cyclin B (Homo sapiens, UniProt P06493). Briefly: Kinase assay CDK1/cyclin B. To be noted: Table 2; read-out: Kinase Inhibition IC50 CDK1 cyclin B. Type of data set: biochemical. The gist of the method:
as §1

The next data set concerns the target CDK9/cyclin T1 (Homo sapiens, UniProt P50750). Briefly: CDK9 assay. Particulars: Table 2; read-out: Kinase Inhibition IC50 CDK9 cyclin T1. It is filed as biochemical. A digest of the protocol: as §3

Each structure is given as a SMILES string.

PLK-1, sequence (P53350 whole entry): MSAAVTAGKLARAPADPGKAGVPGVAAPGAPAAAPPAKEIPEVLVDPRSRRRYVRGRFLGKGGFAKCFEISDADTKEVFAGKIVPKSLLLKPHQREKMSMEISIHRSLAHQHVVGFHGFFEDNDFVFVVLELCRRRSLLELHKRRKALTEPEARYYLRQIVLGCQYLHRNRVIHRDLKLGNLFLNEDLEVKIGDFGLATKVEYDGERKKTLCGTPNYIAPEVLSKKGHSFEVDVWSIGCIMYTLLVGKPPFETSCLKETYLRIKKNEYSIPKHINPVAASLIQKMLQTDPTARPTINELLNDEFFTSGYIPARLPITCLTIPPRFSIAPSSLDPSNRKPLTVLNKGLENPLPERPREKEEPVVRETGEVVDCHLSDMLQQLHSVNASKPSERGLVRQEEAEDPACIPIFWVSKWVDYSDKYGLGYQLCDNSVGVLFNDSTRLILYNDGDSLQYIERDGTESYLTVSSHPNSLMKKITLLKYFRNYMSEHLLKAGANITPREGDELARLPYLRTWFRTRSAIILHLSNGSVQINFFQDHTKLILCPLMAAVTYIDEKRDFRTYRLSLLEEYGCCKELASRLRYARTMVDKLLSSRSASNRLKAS
CDK4/cyclin D1, sequence (P11802 whole entry): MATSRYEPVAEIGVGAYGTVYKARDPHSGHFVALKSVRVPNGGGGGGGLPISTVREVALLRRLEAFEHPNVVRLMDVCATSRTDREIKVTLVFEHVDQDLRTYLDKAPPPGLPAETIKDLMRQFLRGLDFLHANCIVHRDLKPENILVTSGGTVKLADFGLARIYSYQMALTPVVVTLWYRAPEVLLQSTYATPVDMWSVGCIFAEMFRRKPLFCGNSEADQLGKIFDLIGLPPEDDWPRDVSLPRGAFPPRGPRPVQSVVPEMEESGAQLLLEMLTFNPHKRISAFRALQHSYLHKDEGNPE
CDK4/cyclin D1, sequence (P24385 whole entry partner): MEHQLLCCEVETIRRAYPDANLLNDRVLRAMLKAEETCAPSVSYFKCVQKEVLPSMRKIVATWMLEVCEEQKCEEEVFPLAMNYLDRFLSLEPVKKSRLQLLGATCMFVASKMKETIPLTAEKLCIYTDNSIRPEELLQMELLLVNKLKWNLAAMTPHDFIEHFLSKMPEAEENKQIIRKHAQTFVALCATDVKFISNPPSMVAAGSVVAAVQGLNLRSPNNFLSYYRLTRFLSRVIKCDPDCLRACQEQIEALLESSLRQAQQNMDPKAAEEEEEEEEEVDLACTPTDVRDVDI
CDK9/cyclin T1, sequence (P50750 whole entry): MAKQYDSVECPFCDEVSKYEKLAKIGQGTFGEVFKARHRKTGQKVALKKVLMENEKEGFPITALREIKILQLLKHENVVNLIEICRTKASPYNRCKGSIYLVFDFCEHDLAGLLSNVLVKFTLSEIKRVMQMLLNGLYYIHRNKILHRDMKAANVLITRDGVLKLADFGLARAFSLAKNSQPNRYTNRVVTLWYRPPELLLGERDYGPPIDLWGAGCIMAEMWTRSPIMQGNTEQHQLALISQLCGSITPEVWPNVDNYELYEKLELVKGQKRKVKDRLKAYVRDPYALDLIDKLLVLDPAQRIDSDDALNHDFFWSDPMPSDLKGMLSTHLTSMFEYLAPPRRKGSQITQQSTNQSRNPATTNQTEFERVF
CDK9/cyclin T1, sequence (O60563 whole entry partner): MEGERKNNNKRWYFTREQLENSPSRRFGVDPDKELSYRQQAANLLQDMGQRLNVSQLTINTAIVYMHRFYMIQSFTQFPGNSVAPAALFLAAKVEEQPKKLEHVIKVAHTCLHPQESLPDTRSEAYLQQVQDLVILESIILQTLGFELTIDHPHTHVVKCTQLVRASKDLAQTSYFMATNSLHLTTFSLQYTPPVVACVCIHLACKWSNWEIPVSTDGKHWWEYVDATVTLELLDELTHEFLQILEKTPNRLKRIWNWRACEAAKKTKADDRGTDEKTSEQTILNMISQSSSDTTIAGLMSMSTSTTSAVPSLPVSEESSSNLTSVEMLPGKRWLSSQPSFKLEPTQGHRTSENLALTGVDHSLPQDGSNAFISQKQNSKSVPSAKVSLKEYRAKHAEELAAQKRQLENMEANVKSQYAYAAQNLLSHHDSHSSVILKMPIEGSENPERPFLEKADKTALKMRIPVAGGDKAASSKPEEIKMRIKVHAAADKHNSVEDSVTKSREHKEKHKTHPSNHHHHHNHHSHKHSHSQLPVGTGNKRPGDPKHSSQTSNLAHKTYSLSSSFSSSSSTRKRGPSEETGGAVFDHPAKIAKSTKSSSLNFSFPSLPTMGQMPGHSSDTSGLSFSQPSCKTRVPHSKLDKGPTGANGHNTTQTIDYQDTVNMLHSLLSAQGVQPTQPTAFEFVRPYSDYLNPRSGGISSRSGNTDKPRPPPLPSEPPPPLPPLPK
CDK1/cyclin B, sequence (P06493 whole entry): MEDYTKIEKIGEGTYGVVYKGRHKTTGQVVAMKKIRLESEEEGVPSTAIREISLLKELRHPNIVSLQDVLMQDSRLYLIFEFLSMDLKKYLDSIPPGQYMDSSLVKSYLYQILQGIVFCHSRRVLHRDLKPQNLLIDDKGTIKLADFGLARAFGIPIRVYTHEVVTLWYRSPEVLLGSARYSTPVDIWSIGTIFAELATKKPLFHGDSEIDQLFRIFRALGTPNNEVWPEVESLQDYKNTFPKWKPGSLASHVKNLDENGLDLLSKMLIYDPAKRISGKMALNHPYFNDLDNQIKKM
CDK1/cyclin B, sequence (P14635 whole entry partner): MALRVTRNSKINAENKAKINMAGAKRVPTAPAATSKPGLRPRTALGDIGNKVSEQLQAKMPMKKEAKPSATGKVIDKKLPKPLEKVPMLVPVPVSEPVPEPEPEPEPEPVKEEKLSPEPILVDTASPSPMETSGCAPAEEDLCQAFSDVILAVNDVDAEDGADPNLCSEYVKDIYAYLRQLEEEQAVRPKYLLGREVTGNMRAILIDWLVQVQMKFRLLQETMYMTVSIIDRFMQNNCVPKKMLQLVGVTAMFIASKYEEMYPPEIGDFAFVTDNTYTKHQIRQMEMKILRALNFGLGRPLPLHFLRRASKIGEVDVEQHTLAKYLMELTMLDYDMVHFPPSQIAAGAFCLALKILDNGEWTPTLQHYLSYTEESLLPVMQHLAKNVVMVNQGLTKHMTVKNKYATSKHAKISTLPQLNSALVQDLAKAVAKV
CDK7/cyclin H, sequence (P50613 whole entry): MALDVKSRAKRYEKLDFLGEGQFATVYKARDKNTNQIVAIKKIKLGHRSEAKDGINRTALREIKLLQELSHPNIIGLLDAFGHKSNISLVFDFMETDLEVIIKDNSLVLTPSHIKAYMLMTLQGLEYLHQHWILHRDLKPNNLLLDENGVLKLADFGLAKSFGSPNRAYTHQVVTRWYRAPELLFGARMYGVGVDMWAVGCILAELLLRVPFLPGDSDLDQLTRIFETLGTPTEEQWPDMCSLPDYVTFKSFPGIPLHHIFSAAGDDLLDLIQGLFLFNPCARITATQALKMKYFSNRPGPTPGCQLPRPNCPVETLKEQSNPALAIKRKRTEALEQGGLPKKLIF

Take `CNc1nc(C)c(-c2ccnc(Nc3cccc(CN)c3)n2)s1` [Compound 67, (3-Aminomethyl-phenyl)-[4-(4-methyl-2-methylamino-thiazol-5-yl)-pyrimidin-2-yl]-amine]: the melting point lay within 287 to 289 °C. Also, the concentration for half-maximal inhibition (IC50) on CDK2/cyclin E is 420 nM. Further, on PLK-1, the concentration for half-maximal inhibition (IC50) is greater than 100 µM. Also, the 50% inhibitory concentration (IC50) at CDK4/cyclin D1 turned out to be 240 nM. The compound also showed an IC50 with A549 of 14 µM. This compound yielded an IC50 in the data set with HT29 of 14 µM. The compound also returned a half-inhibitory concentration (IC50) in the data set with Saos-2 of 1100 nM.
Take `CCNc1nc(C)c(-c2ccnc(Nc3cccc(CN)c3)n2)s1` [Compound 65, (3-Aminomethyl-phenyl)-[4-(2-ethylamino-4-methyl-thiazol-5-yl)-pyrimidin-2-yl]-amine]: the melting point was in the range of 290 to 292 °C. For the same compound, at CDK2/cyclin E, the IC50 worked out at 330 nM. In addition, at PLK-1, the 50% inhibitory concentration (IC50) is greater than 100 µM. Further, the half-maximal inhibitory concentration (IC50) at CDK4/cyclin D1 was 110 nM. The compound also yielded an IC50 in the data set on A549 of 3.2 µM. In the data set with HT29, this compound came in with an IC50 of 4.8 µM. In the data set with Saos-2, this compound registered an IC50 of 650 nM.
In turn, `CNc1nc(C)c(-c2ccnc(Nc3cccc(CNC(C)=O)c3)n2)s1` [Compound 63, N-{3-[4-(4-Methyl-2-methylamino-thiazol-5-yl)-pyrimidin-2-ylamino]-benzyl}-acetamide] yielded a melting point of 253 to 255 °C. For the same compound, the IC50 at PLK-1 worked out at 46 µM. In addition, at CDK4/cyclin D1, the half-maximal inhibitory concentration (IC50) was found to be 7700 nM. On GSK-3β, the concentration for half-maximal inhibition (IC50) amounted to 8.8 µM. Also, the IC50 at CDK7/cyclin H was 20 µM. The half-maximal inhibitory concentration (IC50) at CDK2/cyclin A was determined as 12 µM. In the data set on A549, this compound returned an IC50 of 0.98 µM. Inhibition in the data set with HT29 was half-maximal at 1.4 µM (IC50). In addition, the half-inhibitory concentration (IC50) at CDK1/cyclin B was found to be 48 µM. Moreover, the IC50 on CDK9/cyclin T1 stood at 2700 nM. For the same compound, the IC50 in the data set with Saos-2 amounted to 1200 nM.
